Values quoted from earlier work in patent publication US20230023032A1, “SUSTAINED RELEASE COMPOSITIONS COMPRISING LIOTHYRONINE” (Amneal Complex Products Research LLC, priority 2020, published 2023).

Conditions: administered in an immediate release form

In the case of `N[C@@H](Cc1cc(I)c(Oc2ccc(O)c(I)c2)c(I)c1)C(=O)O` [liothyronine], the half-life is listed as “about 10 hours”.
